Assay results from patent US20100129347A1, “HERPES VIRUS INFECTION INHIBITOR, METHOD FOR INHIBITING INFECTION WITH HERPES VIRUS, AND USE THEREOF” (Osaka University, priority 2007, published 2010).

System: HSV-1
Assay: HSV-1-GFP infection of human PILR-transfected CHO-K1 cells with acyclovir as control (Example 3), GFP expression 18 hours later
Type: cell-based
Settings: acyclovir 100 μM or 500 μM, or mAb 10 μg/ml, added 30 minutes before virus; FIG. 10
Description: HSV-1-GFP of 1.5×10^6 PFU was added to 5×10^4 CHO-K1 cells to which human PILR had been transfected, and expression of GFP was analyzed 18 hours later.
30 minutes before adding the virus, 100 μM or 500 μM of acyclovir, or 10 μg/ml of anti-human PILR mAb (M4) was added, and a ratio of infection with the virus was shown in FIG. 10 with a ratio of infection of cells to which nothing had been added (“control” in FIG. 10) being 100%.

## Nc1nc2c(ncn2COCCO)c(=O)[nH]1 [acyclovir]
  inhibition of infection with HSV (ratio of infection, control = 100%): did not inhibit infection
